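These data come from cells grown in 96-well plates and exposed to compound for 48 hours at five concentrations. GI50 marks 50% less growth.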 Activity calls are given as the source filed them. Rule as the data show it: active = GI50 up to about 1.1 µM and inactive = higher.
Tests used:
Assay in all cases: inhibition of tumour cell growth, NCI panel, 48 h
TK-10 = tested on: TK-10
UO-31 = tested on: UO-31
U-251 = tested on: U-251
COLO 205 = tested on: COLO 205
OVCAR-8 = tested on: OVCAR-8
PC-3 = tested on: PC-3
SK-OV-3 = tested on: SK-OV-3
KM12 = tested on: KM12
HOP-62 = tested on: HOP-62
OVCAR-3 = tested on: OVCAR-3
NCI/ADR-RES = tested on: NCI/ADR-RES
HL-60 = tested on: HL-60
SNB-75 = tested on: SNB-75
SF-539 = tested on: SF-539
HT-29 = tested on: HT-29
LOX IMVI = tested on: LOX IMVI
RXF 393 = tested on: RXF 393
OVCAR-5 = tested on: OVCAR-5
RPMI-8226 = tested on: RPMI-8226
HCC 2998 = tested on: HCC 2998

Measured: GI50

Nc1ncnc2c1ncn2C1OC(CO)C(O)C1N (configuration not stated)
inactive: TK-10 > 100 µM | UO-31 > 100 µM | U-251 > 100 µM | COLO 205 > 100 µM | OVCAR-8 > 100 µM | PC-3 > 100 µM | SK-OV-3 > 100 µM | KM12 > 100 µM | HOP-62 > 100 µM | OVCAR-3 > 100 µM | NCI/ADR-RES > 100 µM | HL-60 > 100 µM | SNB-75 > 100 µM | SF-539 > 100 µM | HT-29 > 100 µM | LOX IMVI > 100 µM | RXF 393 > 100 µM | OVCAR-5 > 100 µM | RPMI-8226 > 100 µM

Cc1ccc2c(ccc3[nH]cc(CNc4ccc(NS(C)(=O)=O)cc4)c32)n1
inactive: TK-10 37.7 µM | UO-31 37.7 µM | U-251 25.9 µM | COLO 205 29 µM | OVCAR-8 25.7 µM | PC-3 25 µM | SK-OV-3 27.7 µM | KM12 18.3 µM | HOP-62 24.2 µM | OVCAR-3 19.7 µM | NCI/ADR-RES 81.7 µM | HL-60 27.4 µM | SNB-75 18.8 µM | SF-539 22.9 µM | HT-29 28.3 µM | LOX IMVI 20.6 µM | RXF 393 9.14 µM | OVCAR-5 23.8 µM | RPMI-8226 19.1 µM

COc1cc(OC)c(NC2=NCCO2)cc1Cl
inactive: TK-10 60.3 µM | UO-31 91.6 µM | U-251 39.7 µM | HCC 2998 23.8 µM | COLO 205 18.8 µM | OVCAR-8 83 µM | PC-3 24.3 µM | KM12 16.7 µM | HOP-62 49.7 µM | OVCAR-3 43.6 µM | NCI/ADR-RES 32.4 µM | HL-60 43.3 µM | SNB-75 35.6 µM | SF-539 25.5 µM | HT-29 23.5 µM | LOX IMVI 31.4 µM | RXF 393 46.1 µM | OVCAR-5 53.8 µM | RPMI-8226 46.8 µM

CCN(CC)CCNc1ccc2nnn3c4ccc(OC(C)=O)cc4c(=O)c1c23
active: RXF 393 1.11 µM
inactive: TK-10 3.52 µM | UO-31 1.63 µM | U-251 2.22 µM | HCC 2998 2.53 µM | COLO 205 2.45 µM | OVCAR-8 1.15 µM | PC-3 3.62 µM | SK-OV-3 7.35 µM | KM12 3.15 µM | HOP-62 1.98 µM | OVCAR-3 7.96 µM | NCI/ADR-RES 4.45 µM | SF-539 1.67 µM | HT-29 1.47 µM | LOX IMVI 1.47 µM | OVCAR-5 11.7 µM | RPMI-8226 1.59 µM

CC1=NN(C(=O)CC(=O)Nc2cccc(C)c2)C(=O)C1/N=N/c1ccc(C(=O)O)cc1 (configuration not stated)
inactive: TK-10 > 100 µM | UO-31 64.4 µM | U-251 > 100 µM | HCC 2998 > 100 µM | COLO 205 > 100 µM | OVCAR-8 > 100 µM | PC-3 > 100 µM | KM12 > 100 µM | HOP-62 > 100 µM | OVCAR-3 > 100 µM | NCI/ADR-RES > 100 µM | HL-60 > 100 µM | SNB-75 69.2 µM | SF-539 > 100 µM | HT-29 > 100 µM | LOX IMVI > 100 µM | RXF 393 > 100 µM | OVCAR-5 > 100 µM | RPMI-8226 > 100 µM

N=C(N)N/N=C/c1nc2n(c1[N+](=O)[O-])CCS2
inactive: TK-10 40.7 µM | UO-31 > 100 µM | U-251 15.7 µM | COLO 205 14 µM | OVCAR-8 15.7 µM | PC-3 31.6 µM | SK-OV-3 45.3 µM | KM12 25 µM | HOP-62 41.4 µM | OVCAR-3 7.35 µM | NCI/ADR-RES > 100 µM | HL-60 22.5 µM | SNB-75 23.9 µM | SF-539 29 µM | HT-29 30.2 µM | LOX IMVI 15.7 µM | RXF 393 20.8 µM | OVCAR-5 43.8 µM | RPMI-8226 52 µM

CN(C)c1ccc(C(N)=O)cn1
inactive: TK-10 > 100 µM | UO-31 > 100 µM | U-251 > 100 µM | HCC 2998 > 100 µM | COLO 205 > 100 µM | OVCAR-8 > 100 µM | PC-3 > 100 µM | KM12 > 100 µM | HOP-62 > 100 µM | OVCAR-3 > 100 µM | NCI/ADR-RES > 100 µM | HL-60 > 100 µM | SNB-75 > 100 µM | SF-539 > 100 µM | HT-29 > 100 µM | LOX IMVI > 100 µM | RXF 393 > 100 µM | OVCAR-5 > 100 µM | RPMI-8226 > 100 µM

N#CC(/N=N/c1ccc(Cl)cc1)c1nc2ccccc2o1 (configuration not stated)
inactive: TK-10 56.6 µM | UO-31 > 100 µM | U-251 29.6 µM | HCC 2998 33 µM | COLO 205 22.3 µM | OVCAR-8 88.1 µM | PC-3 77.6 µM | SK-OV-3 32.7 µM | KM12 89.7 µM | HOP-62 38.3 µM | OVCAR-3 37.9 µM | NCI/ADR-RES > 100 µM | HL-60 33.7 µM | SF-539 24.6 µM | HT-29 > 100 µM | RXF 393 37.6 µM | OVCAR-5 > 100 µM | RPMI-8226 15.7 µM

Nc1nc(Cl)c(/C=N\O)c(NCC2(CO)CCC2)n1
inactive: TK-10 21.8 µM | UO-31 19.9 µM | U-251 > 100 µM | HCC 2998 68.7 µM | COLO 205 30.3 µM | OVCAR-8 36.2 µM | PC-3 43 µM | KM12 6.25 µM | HOP-62 30.6 µM | OVCAR-3 24.2 µM | NCI/ADR-RES 28.5 µM | HL-60 > 10 µM | SNB-75 59.3 µM | SF-539 33.8 µM | HT-29 59.3 µM | LOX IMVI 9.95 µM | RXF 393 22.4 µM | OVCAR-5 70.8 µM | RPMI-8226 8.11 µM

CCOC(=O)C(=[N+]=[N-])C(=O)CN1C(=O)C2CC(C)=C(C)CC2C1O (configuration not stated)
inactive: TK-10 > 100 µM | UO-31 > 100 µM | U-251 > 100 µM | HCC 2998 > 100 µM | COLO 205 > 100 µM | OVCAR-8 > 100 µM | PC-3 > 100 µM | KM12 > 100 µM | HOP-62 > 100 µM | OVCAR-3 > 100 µM | NCI/ADR-RES > 100 µM | HL-60 > 100 µM | SNB-75 > 100 µM | SF-539 > 100 µM | HT-29 > 100 µM | LOX IMVI > 100 µM | RXF 393 > 100 µM | OVCAR-5 > 100 µM | RPMI-8226 > 100 µM

O=C1C=C(C2=CC(=O)C(=O)c3ccccc32)c2ccccc2C1=O
inactive: TK-10 7.46 µM | UO-31 6.14 µM | U-251 5.47 µM | COLO 205 18 µM | OVCAR-8 20.2 µM | PC-3 15.2 µM | SK-OV-3 44.1 µM | KM12 18.6 µM | HOP-62 24.2 µM | OVCAR-3 2.58 µM | NCI/ADR-RES 23.2 µM | HL-60 3.03 µM | SNB-75 22.4 µM | SF-539 19.4 µM | HT-29 28.6 µM | LOX IMVI 3.87 µM | RXF 393 10.9 µM | OVCAR-5 18.8 µM | RPMI-8226 6.17 µM

CCOC(=O)C1=CNC(C(=O)OCC)C1c1cccn1-c1ccccc1 (configuration not stated)
inactive: TK-10 41.8 µM | UO-31 20.7 µM | U-251 29.6 µM | HCC 2998 28.7 µM | COLO 205 23.5 µM | OVCAR-8 28.8 µM | PC-3 18.8 µM | KM12 30.8 µM | HOP-62 58.3 µM | OVCAR-3 26.1 µM | NCI/ADR-RES 22.8 µM | SNB-75 21.4 µM | SF-539 20.4 µM | HT-29 23 µM | LOX IMVI 16.6 µM | RXF 393 19.4 µM | OVCAR-5 52.1 µM

Cc1cc(C)c2c(c1)C(=O)C1(C2)Cc2c(ccc(C)c2C)C1=O (configuration not stated)
inactive: TK-10 > 100 µM | UO-31 > 100 µM | U-251 > 100 µM | HCC 2998 > 100 µM | COLO 205 > 100 µM | OVCAR-8 > 100 µM | PC-3 > 100 µM | KM12 > 100 µM | OVCAR-3 14.3 µM | NCI/ADR-RES > 100 µM | HL-60 > 100 µM | SNB-75 > 100 µM | SF-539 85.5 µM | LOX IMVI > 100 µM | RXF 393 > 100 µM | RPMI-8226 > 100 µM

CC(/C=C/C=C/C=C/C=C/C=C/C(=O)C1=C(O)C(CCC(=O)O)N(C)C1=O)=C\C(C)C(OC1CC(O)C(O)C(C)O1)C(C)C (configuration not stated)
inactive: TK-10 2.49 µM | UO-31 3.3 µM | U-251 3.6 µM | HCC 2998 2.15 µM | COLO 205 2.18 µM | OVCAR-8 3.74 µM | PC-3 3.32 µM | KM12 1.88 µM | HOP-62 1.87 µM | OVCAR-3 1.98 µM | NCI/ADR-RES 13 µM | HL-60 2.43 µM | SNB-75 3.89 µM | SF-539 2.56 µM | HT-29 3.02 µM | LOX IMVI 3.44 µM | RXF 393 3.07 µM | OVCAR-5 2.27 µM | RPMI-8226 3.13 µM

O=c1c2ccc(S(=O)(=O)c3ccc4c(=O)n5c6ccccc6nc5c5cccc3c45)c3cccc(c32)c2nc3ccccc3n12
inactive: TK-10 21.8 µM | UO-31 39.9 µM | U-251 9.06 µM | HCC 2998 > 100 µM | COLO 205 > 100 µM | OVCAR-8 47.9 µM | PC-3 > 100 µM | SK-OV-3 5.26 µM | KM12 > 100 µM | HOP-62 37.8 µM | OVCAR-3 > 100 µM | NCI/ADR-RES > 100 µM | SF-539 28.7 µM | HT-29 > 100 µM | LOX IMVI > 100 µM | RXF 393 14.3 µM | OVCAR-5 > 100 µM | RPMI-8226 > 100 µM

Source: ChEMBL document CHEMBL1201862, “PubChem BioAssay data set” (2004)
